Data on four compounds can be found in US7288273B1, “Gallotannins and ellagitannins as regulators of cytokine release” (The Penn State Research Foundation, priority 2000, dated 2007).

Data set [1] deals with IL-1β secretion from h-PBMC's. As to the kind of experiment: IL-1β release from h-PBMC's, ELISA. To be noted: h-PBMC's. The format is cell-based, human. Here is the method:
(§1) Authentic samples of agrimoniin and coriariin A were supplied by Professor Yoshida (Okayama University, Japan). Dimeric gallotannin (analog of coriariin A) and β-D-PGG were synthesized as described. LPS (E. coli 055:B5 phenol extract, MW range 50-100 KD). Ficoll-Histopaque (ρ=1.077 g/mL), Fetal Bovine Serum, sterile, hybridoma tested (FCS), gentamicin 10 mg/mL. L-glutamine, 200 mM. Dextran B-512 Leuconostoc Av M.W. 580000, and Trypan Blue stain were purchased from Sigma. Hanks Buffer Saline Solution 1×, with phenol red, mediatech (HBSS) and RPMI 1640 1×, mediatech were purchased from Fisher Scientific, Human IL-1β and TNF-α Enzyme Linked ImmunoSorbent Assay (ELISA) kits were purchased from R and D Systems, Minneapolis, Minn. Fresh heparinized blood was obtained from health human subjects (ages 20-34).
(§2) Dose-Response Data: General Procedure. H-PBMC's were isolated by reported procedures (10. 18). The cells counted and the viability was determined by Trypan Blue exclusion (typically, viability exceeded 95%). The concentration of the cells in the 0.5 mL wells was adjusted to 1×10^6 cells/well by diluting with the required amount of RPMI.
(§3) The appropriate amount of a tannin (or LPS) stock solution in HBSS was added to each well to furnish the concentration values reported in the Figures. […] The culture plates were incubated in a 5% CO2, 37° C. humidified incubator for the indicated time. At the end of the time interval, 450 μL of the culture supernatant from each well was harvested, after centrifugation at 400 g, 25° C., 10 min. with brake, and stored at −78° C. pending ELISA analysis for the cytokine(s). The ELISA assays were conducted per the manufacturer's instructions using standard calibration curves to calculate cytokine concentration from observed absorbance readings. The cytokine values reported are averages of three runs±SE.
(§4) The dimeric antitumor ellagitannins coriariin A and agrimoniin, the monomeric gallotannin β-D-pentagalloylglucose (β-D-PGG) and the dimeric gallotannin of this invention were all examined in this study. The dimeric gallotannin is an analog of coriariin A and is identical to the parent ellagitannin except that the galloyl rings at O(4) and O(6) are not joined in a hexahydroxydiphenoyl (HHDP) linkage. h-PBMC's were incubated with the compound under investigation for the indicated length of time and the amounts of both IL-1β and, independently, TNF-α, present in the culture supernatants was determined using commercially available ELISA kits. In each case, LPS was used as a positive control while untreated cells were reserved as negative controls.
In the third study, compounds 17c-20c were examined for their ability to induce secretion of IL-1β from h-PBMC's (FIG. 16). Recall from the introduction that the cytokine IL-1β is also released in an LPS-stimulated septic shock response. The compounds that cause very little secretion of IL-1β or none at all will be the optimal compounds for potential septic shock therapeutics because they will be less likely themselves to induce a septic shock response.

In data set [2] the test system is TNF-α secretion from h-PBMC's. Put plainly: TNF-α release from h-PBMC's, ELISA. The format is cell-based, human. Here is the method: as §1, §2, §3, §4
In the first study, the induction of TNF-α secretion from h-PBMC's in the presence of each compound 17c-21c was measured. The h-PBMC's were incubated with each compound for 24 hours. The TNF-α levels in the cell culture supernatant were assayed by Enzyme Linked ImmunoSorbant Assay (ELISA). The data point for each assay represent the mean of triplicate measurements. […] (See FIG. 11).
(An ELISA detects its analyte on a solid surface through an enzyme-linked reagent.)

Data set [3] relates to L929 murine fibroblast. Put plainly: qualitative L929 murine fibroblast lysis assay of h-PBMC supernatant. The format is cell-based. An excerpt: This indirect measure of TNF-α levels in the h-PBMC supernatant provided the first evidence which implicated this cytokine in tannin-mediated antitumor activity and encouraged a more quantitative assessment of the TNF-α liberating capacity of agrimoniin and the related species as described below.

In data set [4] the test system is sarcoma-180 tumors. To be noted: cited from earlier work; for life span increase / regressors: Miyamoto's mouse studies, sarcoma-180; for antitumor effect, in words: mice infected with sarcoma-180 tumors.
The conditions of data set [5]: in vivo; cited from earlier work.
The subject of data set [6] is LPS induced secretion of TNF-α. Put plainly: In vivo study in rats given LPS with or without β-PGG. Here is the method: The ability of β-PGG to function in vivo was investigated in collaboration with Dr. Charles Lang of the Hershey Medical School. In this experiment, two groups of rats were used. One group was intravenously administered 1 mg/kg of LPS as well as 25 mg of β-PGG. The second group was given only 1 mg/kg of LPS. […] These preliminary in vivo results were encouraging, however several problems with the use of β-PGG as an inhibitor are evident. A large amount of β-PGG was required to elicit inhibition because β-PGG is a small monomeric gallotannin that is able to interact with other blood proteins such as rat serum albumin.

Data set [7] has as its system LPS induced TNF-α secretion from h-PBMC's. As to the kind of experiment: Inhibition of LPS induced TNF-α secretion from h-PBMC's. The format is cell-based, human. The conditions noted are these: h-PBMC's. Here is the method: In the second study, the ability of compounds 17c-20c to inhibit LPS induced TNF-α production in h-PBMC's was investigated using four assays. The first experiment was a kinetics run in which the h-PBMC's were initially incubated with a fixed concentration of LPS (5 μg/mL) for 45 minutes. This incubation period was followed by addition of a fixed concentration (10 μg/mL) of compounds 17c-20c. The cells were harvested at varying intervals of time. […] The optimal time was determined by comparing the amount of TNF-α secreted by LPS alone to the amount of TNF-α secreted by LPS and substrate at each time point.
The second assay determined the minimum amount of substrate required for inhibition. LPS (10 μg/mL) was incubated with h-PBMC's for 45 minutes followed by addition of 17c-20c at varying concentrations. The cell culture supernatant was harvested after 8 hours. The inherent variability in using cells from different subjects, or in the day of assay, made it difficult to compare overall effectiveness of inhibitors. Therefore, to more easily identify the concentration at which maximum inhibition occurs for a given compound, the TNF-α secretion was normalized by calculating a percent of maximum secretion value (based on LPS alone) (FIG. 13). […] The optimal concentration for inhibition varied between substrates, but the general dose response trend was the same. Overall, the maximum inhibition was 45% for 18c and 20c, and 25% for 19c.
The third assay investigated the ability of 17c, 18c, and 20c to inhibit LPS induced TNF-α secretion using a smaller dosage of LPS (5 μg/mL) (FIG. 14). Again, the response was dose dependent. The maximum inhibition was 45% for 17c and 20c, and 35% for 18c.
In the fourth assay the varying concentrations of substrates 17c-20c and LPS were added at the same time to determine the effect of addition sequence on the inhibition of TNF-α secretion (FIG. 15). The addition time seemed to make a difference in the overall dose response trend. However, maximum inhibition was the same as when the compounds were added 45 minutes after LPS addition (about 40% for each compound).
Finally, in the last study, analogs 19c and 20c were again tested for inhibition LPS induced TNF-α secretion (FIG. 17). In this assay a smaller dose of LPS was used to determine if inhibition was greater when much lower doses of LPS were present. The substrates were added 45 minutes after LPS addition and the cells were harvested after 8 hours. It doesn't appear as though the substrates are better inhibitors when smaller amounts of LPS are used, again perhaps reflecting receptor saturation with LPS at this dosage.

The test system of data set [8] is IL-1β secretion from h-PBMC's. The conditions noted are these: cited from earlier work.
[9] abbreviates: fixed concentrations, time course.
[10] abbreviates: rats, 1 mg/kg LPS intravenously and 25 mg β-PGG.

Where “and” joins values, the source holds several entries; their conditions need not be identical. Equal entries are not always repeated.

Regarding `O=C(OC1OC2COC(=O)c3cc(O)c(O)c(O)c3-c3c(cc(O)c(O)c3O)C(=O)OC2C(OC(=O)c2cc(O)c(O)c(O)c2)C1OC(=O)c1cc(O)c(O)c(O)c1)c1cc(O)c(O)c(Oc2c(C(=O)OC3OC4COC(=O)c5cc(O)c(O)c(O)c5-c5c(cc(O)c(O)c5O)C(=O)OC4C(OC(=O)c4cc(O)c(O)c(O)c4)C3OC(=O)c3cc(O)c(O)c(O)c3)cc(O)c(O)c2O)c1` (stereo not drawn) [coriariin A], the “IL-1β inducing ability relative to agrimoniin on a molar basis” value in data set [1] (4 h) is listed as “twice that of agrimoniin”. In addition, in data set [2], the “TNF-α secretion from h-PBMC's, in words” value is on record as “higher levels of TNF-α”. Besides, the “release of TNF-α, indirect measure by L929 lysis” value in data set [3] is on record as “promoted release of TNF-α in substantial amounts”. Also, in data set [4], the life span increase is reported as 238%; the regressors is listed as 3/6; the “antitumor effect, in words” value is listed as “induce tumor regression”.
For TNF-α, the “clearance from serum, t1/2” value in data set [5] is 6.5 to 10.5 min.
As for `O=C(OCC1OC(OC(=O)c2cc(O)c(O)c(O)c2)[C@H](OC(=O)c2cc(O)c(O)c(O)c2)[C@@H](OC(=O)c2cc(O)c(O)c(O)c2)C1OC(=O)c1cc(O)c(O)c(O)c1)c1cc(O)c(O)c(O)c1` (stereo partly drawn) [Compound 1, β-D-pentagalloylglucose], the “IL-1β detected at 4 h reading” value in data set [1] (fixed concentrations, 4 h) is recorded as “only trace amounts”. Besides, the “time of maximum IL-1β discharge” value in data set [1] (setting [9]) was “ca. 24 h”. Moreover, the “IL-1β secretion from h-PBMC's, in words” value in data set [1] (listed as β-D-PGG) is recorded as “effective at stimulating the production of IL-1β”. Moreover, the “IL-1β secretion from h-PBMC's, in words” value in data set [1] (listed as β-PGG) was “high levels of IL-1β”. Further, in data set [2], the “TNF-α secretion from h-PBMC's, in words” value is “much less TNF-α discharge”. Also, the “TNF-α detected at 4 h reading” value in data set [2] (fixed concentrations, 4 h) is on record as “only trace amounts”. For the same compound, the “time of maximum TNF-α discharge” value in data set [2] (setting [9]) is “ca. 24 h”. Besides, the “TNF-α secreted from 90 min” value in data set [6] (rats given LPS 1 mg/kg intravenously + 25 mg β-PGG (LPS + 1), 90 min, individual rats, ± SD) was 6919.4 ± 823.2 pg/mL and 4509.4 ± 583.3 pg/mL and 8060.7 ± 918.2 pg/mL and 1928.4 ± 331.5 pg/mL. For the same compound, in data set [6] (rats given LPS 1 mg/kg intravenously + 25 mg β-PGG (LPS + 1), 180 min, individual rats, ± SD), the “TNF-α secreted after 180 min” value is 733.9 ± 28.3 pg/mL and 291.7 ± 68.0 pg/mL and 1347.5 ± 150.4 pg/mL and 129.9 ± 105.5 pg/mL. In data set [6] (setting [10]), the “TNF-α secretion compared to LPS-only rats, in words” value is reported as “suppressed levels of TNF-α secretion” and the “septic shock response (blood pressure)” value is listed as “low blood pressure was still observed”. Moreover, in data set [7], the “inhibition of LPS induced TNF-α secretion from h-PBMC's, in words” value is listed as “can inhibit LPS induced secretion of TNF-α”. Moreover, in data set [4], the life span increase is listed as 82%; the regressors is reported as 0/6; the “antitumor effect, in words” value was “much less effective antitumor agents”.
`O=C(O[C@H]1O[C@@H]2COC(=O)c3cc(O)c(O)c(O)c3-c3c(cc(O)c(O)c3O)C(=O)O[C@H]2[C@@H]2OC(=O)c3cc(O)c(O)c(O)c3-c3c(cc(O)c(O)c3O)C(=O)O[C@@H]12)c1cc(O)c(O)c(Oc2c(C(=O)O[C@H]3O[C@@H]4COC(=O)c5cc(O)c(O)c(O)c5-c5c(cc(O)c(O)c5O)C(=O)O[C@H]4[C@@H]4OC(=O)c5cc(O)c(O)c(O)c5-c5c(cc(O)c(O)c5O)C(=O)O[C@@H]34)cc(O)c(O)c2O)c1` [agrimoniin]: the “IL-1β secreted above blank” value in data set [1] (4 h treatment with 28 μM agrimoniin) is listed as “ca. 1 ng/mL”. Also, the “IL-1β secreted (reported earlier)” value in data set [8] (20 μM agrimoniin) is reported as “ca. 1.2 ng/mL”. Also, the “time of maximal IL-1β secretion” value in data set [8] (agrimoniin-mediated, Miyamoto) is listed as “ca. 24 h”. Besides, the “release of TNF-α, indirect measure by L929 lysis” value in data set [3] is recorded as “promoted release of TNF-α in substantial amounts”. In addition, the “antitumor effect, in words” value in data set [4] is recorded as “induce tumor regression”.
